Measurements reported in PubChem BioAssay AID651581 (Sanford-Burnham Center for Chemical Genomics, 2012).
The source made the active and inactive calls. How the calls were made is not given here.

Experiments:
[1] = target: Hypoxia-inducible factor 1-alpha (Homo sapiens) (UniProt Q16665); test: potency against HIF reporters across cell lines – luminescence, panel, selectivity assay for HIF-2a inhibitor project, dose response (AID 651581); conditions: human cell HIF reporter, HIF-1a
[2] = target: Endothelial PAS domain-containing protein 1 (Homo sapiens) (UniProt Q99814); test: as above; conditions: human cell HIF reporter

Hypoxia-inducible factor 1-alpha (Homo sapiens), sequence (Q16665 whole entry, looked up, the tested form may be a part): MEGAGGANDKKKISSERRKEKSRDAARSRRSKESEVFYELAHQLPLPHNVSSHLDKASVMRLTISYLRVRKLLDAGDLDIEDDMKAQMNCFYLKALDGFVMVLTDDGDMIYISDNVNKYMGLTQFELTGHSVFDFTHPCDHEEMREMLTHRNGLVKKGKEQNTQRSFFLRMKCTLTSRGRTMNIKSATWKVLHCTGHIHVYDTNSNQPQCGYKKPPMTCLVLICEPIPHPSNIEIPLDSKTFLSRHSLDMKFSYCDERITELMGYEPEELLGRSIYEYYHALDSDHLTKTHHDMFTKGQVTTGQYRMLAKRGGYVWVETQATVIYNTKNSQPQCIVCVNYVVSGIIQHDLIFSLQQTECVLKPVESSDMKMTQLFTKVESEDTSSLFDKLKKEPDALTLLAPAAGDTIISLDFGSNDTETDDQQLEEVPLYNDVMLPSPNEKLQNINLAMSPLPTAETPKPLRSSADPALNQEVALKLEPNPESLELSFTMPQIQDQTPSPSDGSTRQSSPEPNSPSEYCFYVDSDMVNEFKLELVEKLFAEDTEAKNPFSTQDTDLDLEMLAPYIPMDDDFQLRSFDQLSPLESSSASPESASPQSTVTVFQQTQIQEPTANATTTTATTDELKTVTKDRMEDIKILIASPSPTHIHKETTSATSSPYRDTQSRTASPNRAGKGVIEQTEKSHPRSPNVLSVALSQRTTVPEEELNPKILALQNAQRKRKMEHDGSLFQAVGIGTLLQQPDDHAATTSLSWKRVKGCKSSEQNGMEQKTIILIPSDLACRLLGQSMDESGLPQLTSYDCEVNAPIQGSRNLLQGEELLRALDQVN

Structure (SMILES)	IC50 ([1]; run 1)	IC50 ([1]; run 2)	IC50 ([2]; HIF-2a PANC, mean of runs)	IC50 ([2]; HIF-2a PANC, run 1)	IC50 ([2]; HIF-2a PANC, run 2)	IC50 ([2]; HIF-2a, mean of runs)	IC50 ([2]; HIF-2a, run 1)	IC50 ([2]; HIF-2a, run 2)	IC50 ([1]; mean of runs)
O=C(NCc1ccccc1)C(=O)Nc1cccc(C(=O)O)c1	> 99 µM	> 99 µM	> 99 µM (inactive)	> 99 µM	> 99 µM	9.97 µM	9.98 µM	9.95 µM	–
O=C1C=CC(=O)N1c1ccccc1N1C(=O)C=CC1=O	40.9 µM	34.6 µM	> 99 µM (inactive)	> 99 µM	> 99 µM	inactive	13.4 µM	13.2 µM	inactive
CCOc1ccc2nc(SCc3ccc(CC(=O)O)cc3)c(C#N)cc2c1	35.4 µM	13.8 µM	7.1 µM	10.9 µM	3.27 µM	6.7 µM	5.75 µM	7.65 µM	24.6 µM
C=C1C(=O)OC2CC3(C)OC3C3OC3C3=CC(OC3=O)C12 (centres undefined)	33.9 µM	38.9 µM	–	> 99 µM	59.7 µM	inactive	11.4 µM	10.3 µM	36.4 µM
O=C(Nc1ccc(NC(=O)c2cccs2)cc1)c1ccc2c(c1)OCCO2	> 99 µM	> 99 µM	1.93 µM	2.06 µM	1.79 µM	–	22 µM	> 99 µM	> 99 µM (inactive)
Cc1cc(C)cc(C(=O)NC(=S)Nc2ccc(-c3cc4ccccc4oc3=O)cc2)c1	> 99 µM	> 99 µM	–	> 99 µM	> 99 µM	> 99 µM (inactive)	> 99 µM	> 99 µM	> 99 µM (inactive)
Cc1cc(C)c(C)c(S(=O)(=O)ON2C(=O)c3ccccc3C2=O)c1C	> 99 µM	> 99 µM	inactive	50.9 µM	21.9 µM	8.77 µM	8.96 µM	8.59 µM	–
CC(C)COc1ccc(C(=S)N2CCCC2)cc1	> 99 µM	> 99 µM	14.5 µM	13.6 µM	15.5 µM	4.91 µM	4.41 µM	5.42 µM	–
CCCCOC(=O)c1ccc(NC(=S)NC(=O)c2c(Br)c(C)nn2C)cc1	> 99 µM	> 99 µM	inactive	8.11 µM	16.2 µM	0.894 µM	0.821 µM	0.968 µM	–
COc1ccc2nc(-c3ccc(N)cc3)[nH]c2c1	38.6 µM	44.2 µM	3.65 µM	5.51 µM	1.79 µM	1.88 µM	2.55 µM	1.22 µM	41.4 µM
Cc1nnnn1/C(=C\c1ccccc1)C(=O)OCC(=O)Nc1ccc(Cl)cc1F	16 µM	21.2 µM	19.9 µM	19.3 µM	20.6 µM	8.16 µM	8.44 µM	7.88 µM	inactive
O=C(O)c1cccc(N/N=C/c2cccs2)c1	> 99 µM	> 99 µM	–	> 99 µM	45.8 µM	5.74 µM	5.56 µM	5.91 µM	–
CCOC(=O)Cc1csc(NC(=S)NC(=O)c2ccccc2)n1	23.3 µM	20.9 µM	–	41 µM	< 10 µM	3.69 µM	3.72 µM	3.66 µM	22.1 µM
O=C(c1ccccc1)c1cc(Cl)ccc1N1C(=O)C=CC1=O	55 µM	61.7 µM	–	25.3 µM	> 99 µM	6.91 µM	7.05 µM	6.78 µM	58.4 µM
CC(=O)Nc1ccc(OCC(=O)c2ccc(C)cc2C)cc1	4.55 µM	87.9 µM	4.2 µM	3.04 µM	5.37 µM	2.47 µM	2.75 µM	2.19 µM	46.2 µM
O=C(NNc1nc2ccccc2o1)c1ccccc1	46.1 µM	> 99 µM	> 99 µM (inactive)	> 99 µM	> 99 µM	6.37 µM	6.68 µM	6.06 µM	–
O=C(O)c1cccc(COc2ccccc2Cl)c1	17.8 µM	24.6 µM	–	21.1 µM	> 99 µM	2.58 µM	2.52 µM	2.65 µM	21.2 µM
CCOC(=O)c1c(C)nn(-c2ccc(NC(=O)c3c(C)noc3C)cc2)c1C	10.2 µM	11.8 µM	inactive	15.3 µM	13.2 µM	4.26 µM	4.25 µM	4.26 µM	inactive
